Assay results from ChEMBL document CHEMBL1201862, “PubChem BioAssay data set” (2004).
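Protocol summary: plate cells (96-well), add compound at 5 concentrations, incubate 48 h, interpolate endpoints linearly. Abbreviation: GI50, concentration required for 50% inhibition of growth.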 Calls of active or inactive are those of the source. No stated cut-off is given here; in the data, active = GI50 up to about 1.1 µM and inactive = higher.

Experiments:
Assay in all cases: NCI tumour cell line growth inhibition, 48 h
MDA-MB-435 = tested on: MDA-MB-435
M14 = tested on: M14
DU-145 = tested on: DU-145
SF-268 = tested on: SF-268
OVCAR-8 = tested on: OVCAR-8
HT-29 = tested on: HT-29
SK-MEL-28 = tested on: SK-MEL-28
HCC 2998 = tested on: HCC 2998
MCF7 = tested on: MCF7
MDA-N = tested on: MDA-N
SR = tested on: SR
SF-295 = tested on: SF-295
A498 = tested on: A498
U-251 = tested on: U-251
HOP-92 = tested on: HOP-92
HCT-116 = tested on: HCT-116
HL-60 = tested on: HL-60
NCI-H522 = tested on: NCI-H522
Malme-3M = tested on: Malme-3M
SN12C = tested on: SN12C

Measured: GI50

CC(=O)O[C@@H]1CN(S(=O)(=O)c2ccc(C)cc2)C[C@@H]1C1CCCCC1
inactive: MDA-MB-435 18.7 µM | M14 15.8 µM | DU-145 30.8 µM | SF-268 16.8 µM | OVCAR-8 24.8 µM | HT-29 22.9 µM | SK-MEL-28 14.5 µM | HCC 2998 42.5 µM | MCF7 19.4 µM | MDA-N 17.1 µM | SR 23.4 µM | SF-295 37.9 µM | A498 20 µM | U-251 17.7 µM | HOP-92 14.7 µM

CC1(C)CC[C@]2(C(=O)O)CC[C@]3(C)C(=CC[C@@H]4[C@@]5(C)CC[C@@H]6OC(C)(C)OC[C@@]6(C)[C@@H]5CC[C@]43C)[C@H]2C1
inactive: MDA-MB-435 8.55 µM | M14 15.5 µM | DU-145 9.86 µM | SF-268 8.04 µM | OVCAR-8 7.64 µM | HT-29 4.54 µM | SK-MEL-28 14.4 µM | HCC 2998 13.2 µM | MCF7 > 10 µM | HCT-116 5.33 µM | HL-60 8.51 µM | MDA-N 13.3 µM | SR 10.1 µM | SF-295 5.18 µM | A498 15.4 µM | NCI-H522 7.71 µM | Malme-3M 12.6 µM | U-251 5.89 µM | SN12C 3.13 µM

Cc1cccc(CNNC(=O)c2cc[n+]([BH2-]C#N)cc2)c1
inactive: MDA-MB-435 28.3 µM | M14 37.9 µM | DU-145 24.7 µM | SF-268 26.7 µM | OVCAR-8 24.6 µM | HT-29 29.3 µM | SK-MEL-28 6.67 µM | HCC 2998 22.4 µM | MCF7 36.5 µM | HCT-116 23.3 µM | HL-60 22.5 µM | MDA-N 29.2 µM | SR 32.3 µM | SF-295 36.1 µM | A498 24.7 µM | Malme-3M 15 µM | U-251 39.5 µM | HOP-92 4.47 µM

CCCCC(=O)N/S(=N/C(=O)c1ccccc1)C(Cl)(Cl)Cl (stereo unspecified)
inactive: MDA-MB-435 > 100 µM | M14 > 100 µM | DU-145 > 100 µM | SF-268 > 100 µM | OVCAR-8 > 100 µM | HT-29 > 100 µM | SK-MEL-28 > 100 µM | HCC 2998 > 100 µM | MCF7 > 100 µM | HCT-116 > 100 µM | HL-60 79.1 µM | MDA-N > 100 µM | SR > 100 µM | SF-295 > 100 µM | Malme-3M > 100 µM | U-251 > 100 µM | SN12C > 100 µM | HOP-92 > 100 µM

O=C1/C(=C/c2ccc(Cl)cc2)CSc2ccccc21
inactive: MDA-MB-435 4.86 µM | M14 31.8 µM | DU-145 38.2 µM | SF-268 22.5 µM | OVCAR-8 20.5 µM | HT-29 19.4 µM | SK-MEL-28 23.1 µM | MCF7 2.26 µM | HCT-116 2.6 µM | HL-60 17.9 µM | MDA-N 5.78 µM | SR 5 µM | A498 62.5 µM | Malme-3M 25.5 µM | U-251 5.87 µM | SN12C 17.2 µM | HOP-92 33.6 µM

C=C[C@H]1CC[C@H]2[C@@H]3CC=C4C[C@@H](OC5OCC(O)C(O)C5O)CC[C@]4(C)[C@H]3CC[C@]12C (stereo partly specified)
inactive: MDA-MB-435 15.9 µM | M14 16.1 µM | DU-145 34.1 µM | SF-268 13.8 µM | OVCAR-8 16.3 µM | HT-29 24.4 µM | MCF7 36.8 µM | HCT-116 13.7 µM | HL-60 29.7 µM | MDA-N 17.6 µM | SR 14.7 µM | SF-295 15.2 µM | A498 4.22 µM | NCI-H522 11.4 µM | U-251 14.9 µM | SN12C 15.7 µM | HOP-92 1.97 µM

N=C(N)N/N=C/c1nc2sccn2c1[N+](=O)[O-]
inactive: MDA-MB-435 19.8 µM | M14 22.6 µM | DU-145 22.3 µM | SF-268 33.3 µM | OVCAR-8 34 µM | HT-29 26.2 µM | SK-MEL-28 > 100 µM | MCF7 18 µM | HCT-116 22.4 µM | HL-60 6.58 µM | MDA-N 19.6 µM | SR 33.2 µM | SF-295 33.3 µM | A498 56.1 µM | NCI-H522 21.6 µM | Malme-3M 13.3 µM | U-251 28.6 µM | SN12C 37.5 µM | HOP-92 68.9 µM

CCOP1(=O)OCC2OC(n3cnc4c(N)ncnc43)C(O)C2O1.c1ccccc1 (stereo unspecified)
inactive: MDA-MB-435 > 100 µM | M14 > 100 µM | DU-145 > 100 µM | SF-268 > 100 µM | OVCAR-8 > 100 µM | HT-29 > 100 µM | SK-MEL-28 > 100 µM | MCF7 > 100 µM | HCT-116 > 100 µM | HL-60 > 100 µM | MDA-N > 100 µM | SR > 100 µM | SF-295 > 100 µM | A498 > 100 µM | NCI-H522 > 100 µM | Malme-3M > 100 µM | U-251 > 100 µM | SN12C > 100 µM | HOP-92 > 100 µM

Cc1nnc2n(c1=O)CCN2C
inactive: MDA-MB-435 > 100 µM | M14 > 100 µM | DU-145 > 100 µM | SF-268 > 100 µM | OVCAR-8 > 100 µM | HT-29 > 100 µM | SK-MEL-28 > 100 µM | HCC 2998 > 100 µM | MCF7 > 100 µM | HCT-116 > 100 µM | HL-60 > 100 µM | MDA-N > 100 µM | SR > 100 µM | SF-295 > 100 µM | Malme-3M > 100 µM | U-251 > 100 µM | SN12C > 100 µM | HOP-92 > 100 µM

NC(CSC1(c2ccc(Cl)cc2)c2ccccc2-c2ccccc21)C(=O)O (stereo unspecified)
inactive: MDA-MB-435 14.4 µM | M14 26.4 µM | DU-145 34.5 µM | SF-268 20.5 µM | OVCAR-8 17.7 µM | HT-29 37.8 µM | SK-MEL-28 > 100 µM | MCF7 17.6 µM | HCT-116 16.6 µM | HL-60 6.4 µM | MDA-N > 100 µM | SR 15.1 µM | SF-295 15.3 µM | A498 17.1 µM | NCI-H522 15.4 µM | Malme-3M 19.6 µM | U-251 15.8 µM | SN12C 19.1 µM | HOP-92 20.7 µM

CCN(CC)CCCn1c(=O)c2cccnc2n2c3c(=O)n(C)c(=O)n(C)c3nc12
inactive: MDA-MB-435 > 100 µM | M14 > 100 µM | DU-145 > 100 µM | SF-268 > 100 µM | OVCAR-8 > 100 µM | HT-29 > 100 µM | SK-MEL-28 > 100 µM | HCC 2998 > 100 µM | MCF7 > 100 µM | HCT-116 > 100 µM | HL-60 > 100 µM | MDA-N > 100 µM | SR > 100 µM | SF-295 > 100 µM | NCI-H522 > 100 µM | Malme-3M > 100 µM | U-251 > 100 µM | SN12C > 100 µM | HOP-92 > 100 µM

O=P(c1ccccc1)(c1ccccc1)N1O[C@@H](c2ccccc2)C=C[C@H]1c1ccccc1
inactive: MDA-MB-435 4.2 µM | M14 10.9 µM | DU-145 13 µM | SF-268 12.4 µM | OVCAR-8 12.8 µM | HT-29 9.75 µM | SK-MEL-28 17.3 µM | HCC 2998 13.7 µM | MCF7 3.4 µM | HCT-116 4.11 µM | HL-60 5.24 µM | MDA-N 3.31 µM | SR 4.46 µM | SF-295 11.6 µM | NCI-H522 9.33 µM | Malme-3M 14.5 µM | U-251 4.37 µM | SN12C 4.36 µM | HOP-92 11.6 µM

COC(C(=O)NN)c1ccccc1 (stereo unspecified)
inactive: MDA-MB-435 > 100 µM | M14 > 100 µM | DU-145 > 100 µM | SF-268 > 100 µM | OVCAR-8 > 100 µM | HT-29 > 100 µM | SK-MEL-28 > 100 µM | HCC 2998 > 100 µM | MCF7 > 100 µM | MDA-N > 100 µM | SR > 100 µM | SF-295 > 100 µM | NCI-H522 > 100 µM | Malme-3M > 100 µM | U-251 > 100 µM | SN12C > 100 µM | HOP-92 > 100 µM

Cc1cc(C)c2nc3c(c(C(O)C4CCCCN4)c2c1)CC/C3=C\c1ccc(Cl)cc1 (stereo unspecified)
inactive: MDA-MB-435 55.1 µM | M14 75.9 µM | DU-145 81.1 µM | SF-268 > 100 µM | OVCAR-8 58.6 µM | HT-29 30.4 µM | SK-MEL-28 > 100 µM | MCF7 46.6 µM | HCT-116 32 µM | HL-60 10.7 µM | MDA-N 50.4 µM | SR 34.2 µM | SF-295 73.1 µM | A498 > 100 µM | NCI-H522 34 µM | Malme-3M > 100 µM | U-251 60.4 µM | SN12C 38.1 µM | HOP-92 > 100 µM

O=C1CCCC2=C1CC1=C(CCCC1=O)N2c1ccc(Cl)cc1
inactive: MDA-MB-435 > 100 µM | M14 > 100 µM | DU-145 > 100 µM | SF-268 > 100 µM | OVCAR-8 97.1 µM | HT-29 > 100 µM | SK-MEL-28 > 100 µM | HCC 2998 > 100 µM | MCF7 > 100 µM | HCT-116 > 100 µM | HL-60 28.1 µM | MDA-N > 100 µM | SR 50.1 µM | SF-295 > 100 µM | A498 > 100 µM | Malme-3M > 100 µM | U-251 > 100 µM | SN12C > 100 µM
